Reference: PubChem BioAssay (NCI)
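GI50 marks 50% less growth. TGI: concentration producing complete growth inhibition.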

How the values were obtained:
Experiment in all cases: NCI tumour cell line growth inhibition, 384-well format
A498 renal = test system: A498 renal
A549 NSCLC = test system: A549 NSCLC
ACHN renal = test system: ACHN renal
CCRF-CEM leukemia = test system: CCRF-CEM leukemia
COLO 205 colon = test system: COLO 205 colon
EKVX NSCLC = test system: EKVX NSCLC
HCC-2998 colon = test system: HCC-2998 colon
HL-60(TB) leukemia = test system: HL-60(TB) leukemia
HOP-62 NSCLC = test system: HOP-62 NSCLC
HOP-92 NSCLC = test system: HOP-92 NSCLC
HS 578T breast = test system: HS 578T breast
HT29 colon = test system: HT29 colon
IGROV1 ovarian = test system: IGROV1 ovarian
KM12 colon = test system: KM12 colon
M14 melanoma = test system: M14 melanoma
MALME-3M melanoma = test system: MALME-3M melanoma
MCF7 breast = test system: MCF7 breast
MDA-MB-231 breast = test system: MDA-MB-231 breast
MDA-MB-435 melanoma = test system: MDA-MB-435 melanoma
MDA-MB-468 breast = test system: MDA-MB-468 breast
NCI-H226 lung = test system: NCI-H226 lung
NCI-H322M lung = test system: NCI-H322M lung
NCI/ADR-RES ovarian = test system: NCI/ADR-RES ovarian
OVCAR-5 ovarian = test system: OVCAR-5 ovarian
OVCAR-8 ovarian = test system: OVCAR-8 ovarian
PC-3 prostate = test system: PC-3 prostate
SF-295 CNS = test system: SF-295 CNS
SK-MEL-28 melanoma = test system: SK-MEL-28 melanoma
SK-OV-3 ovarian = test system: SK-OV-3 ovarian
SN12C renal = test system: SN12C renal
SNB-19 CNS = test system: SNB-19 CNS
SNB-75 CNS = test system: SNB-75 CNS
T-47D breast = test system: T-47D breast
TK-10 renal = test system: TK-10 renal
U251 glioblastoma = test system: U251 glioblastoma
UACC-257 melanoma = test system: UACC-257 melanoma
UO-31 renal = test system: UO-31 renal
786-0 renal = test system: 786-0 renal
BT-549 breast = test system: BT-549 breast
CAKI-1 renal = test system: CAKI-1 renal
DU-145 prostate = test system: DU-145 prostate
HCT-116 colon = test system: HCT-116 colon
HCT-15 colon = test system: HCT-15 colon
LOX IMVI melanoma = test system: LOX IMVI melanoma
MOLT-4 leukemia = test system: MOLT-4 leukemia
NCI-H23 lung = test system: NCI-H23 lung
NCI-H460 NSCLC = test system: NCI-H460 NSCLC
NCI-H522 lung = test system: NCI-H522 lung
OVCAR-3 ovarian = test system: OVCAR-3 ovarian
OVCAR-4 ovarian = test system: OVCAR-4 ovarian
RPMI-8226 leukemia = test system: RPMI-8226 leukemia
RXF 393 renal = test system: RXF 393 renal
SF-268 CNS = test system: SF-268 CNS
SF-539 CNS = test system: SF-539 CNS
SK-MEL-5 melanoma = test system: SK-MEL-5 melanoma
SR leukemia = test system: SR leukemia
SW-620 colon = test system: SW-620 colon
UACC-62 melanoma = test system: UACC-62 melanoma

## CCOC(=O)C1=CCCC[C@H]1S(=O)(=O)Nc1ccc(F)cc1Cl
A498 renal
  GI50: 19.5 µM
  TGI: 49.6 µM
A549 NSCLC
  GI50: 32.1 µM
  TGI: > 100 µM
ACHN renal
  GI50: 27.9 µM
  TGI: 85.2 µM
CCRF-CEM leukemia
  GI50: 14.8 µM
  TGI: 28.9 µM
COLO 205 colon
  GI50: 28.4 µM
  TGI: 62.8 µM
EKVX NSCLC
  GI50: 19.4 µM
  TGI: 44.3 µM
HCC-2998 colon
  GI50: 18.4 µM
  TGI: 37.3 µM
HL-60(TB) leukemia
  GI50: 10.6 µM
  TGI: 22.7 µM
HOP-62 NSCLC
  GI50: 19.4 µM
  TGI: 73.7 µM
HOP-92 NSCLC
  GI50: 16.9 µM
  TGI: 39.8 µM
HS 578T breast
  GI50: 16.1 µM
  TGI: 42.2 µM
HT29 colon
  GI50: 29.8 µM
  TGI: > 100 µM
IGROV1 ovarian
  GI50: 29.8 µM
  TGI: > 100 µM
KM12 colon
  GI50: 21 µM
  TGI: 48.4 µM
M14 melanoma
  GI50: 21.9 µM
  TGI: 68 µM
MALME-3M melanoma
  GI50: 21.7 µM
  TGI: 57.6 µM
MCF7 breast
  GI50: 14.1 µM
  TGI: 33 µM
MDA-MB-231 breast
  GI50: 27.3 µM
  TGI: > 100 µM
MDA-MB-435 melanoma
  GI50: 31 µM
  TGI: > 100 µM
MDA-MB-468 breast
  GI50: 12.4 µM
  TGI: 27.2 µM
NCI-H226 lung
  GI50: 18.8 µM
  TGI: 52.3 µM
NCI-H322M lung
  GI50: 20.1 µM
  TGI: 51.1 µM
NCI/ADR-RES ovarian
  GI50: 18.6 µM
  TGI: 39.4 µM
OVCAR-5 ovarian
  GI50: 26.7 µM
  TGI: 70.6 µM
OVCAR-8 ovarian
  GI50: 15.6 µM
  TGI: 38.6 µM
PC-3 prostate
  GI50: 18.8 µM
  TGI: 41 µM
SF-295 CNS
  GI50: 19.2 µM
  TGI: 52.5 µM
SK-MEL-28 melanoma
  GI50: > 100 µM
  TGI: > 100 µM
SK-OV-3 ovarian
  GI50: 22.3 µM
  TGI: 65.5 µM
SN12C renal
  GI50: 18.4 µM
  TGI: 48.4 µM
SNB-19 CNS
  GI50: 23.6 µM
  TGI: 79.9 µM
SNB-75 CNS
  GI50: 20.4 µM
  TGI: 55.3 µM
T-47D breast
  GI50: 11.4 µM
  TGI: 24.1 µM
TK-10 renal
  GI50: 22 µM
  TGI: 60.5 µM
U251 glioblastoma
  GI50: 18.1 µM
  TGI: 41 µM
UACC-257 melanoma
  GI50: 17.5 µM
  TGI: 84.9 µM
UO-31 renal
  GI50: 19 µM
  TGI: 47.2 µM

## CNC(=O)c1ccc(N2C(=S)N(c3cnc(C#N)c(C(F)(F)F)c3)C(=O)C23CCC3)cc1F
786-0 renal
  GI50: > 100 µM
  TGI: > 100 µM
A498 renal
  GI50: > 100 µM
  TGI: > 100 µM
A549 NSCLC
  GI50: > 100 µM
  TGI: > 100 µM
ACHN renal
  GI50: > 100 µM
  TGI: > 100 µM
BT-549 breast
  GI50: > 100 µM
  TGI: > 100 µM
CAKI-1 renal
  GI50: > 100 µM
  TGI: > 100 µM
CCRF-CEM leukemia
  GI50: > 100 µM
  TGI: > 100 µM
COLO 205 colon
  GI50: > 100 µM
  TGI: > 100 µM
DU-145 prostate
  GI50: > 100 µM
  TGI: > 100 µM
EKVX NSCLC
  GI50: > 100 µM
  TGI: > 100 µM
HCC-2998 colon
  GI50: > 100 µM
  TGI: > 100 µM
HCT-116 colon
  GI50: > 100 µM
  TGI: > 100 µM
HCT-15 colon
  GI50: > 100 µM
  TGI: > 100 µM
HL-60(TB) leukemia
  GI50: 55.6 µM
  TGI: > 100 µM
HOP-62 NSCLC
  GI50: > 100 µM
  TGI: > 100 µM
HOP-92 NSCLC
  GI50: > 100 µM
  TGI: > 100 µM
HS 578T breast
  GI50: > 100 µM
  TGI: > 100 µM
HT29 colon
  GI50: > 100 µM
  TGI: > 100 µM
IGROV1 ovarian
  GI50: > 100 µM
  TGI: > 100 µM
KM12 colon
  GI50: > 100 µM
  TGI: > 100 µM
LOX IMVI melanoma
  GI50: > 100 µM
  TGI: > 100 µM
M14 melanoma
  GI50: > 100 µM
  TGI: > 100 µM
MALME-3M melanoma
  GI50: > 100 µM
  TGI: > 100 µM
MCF7 breast
  GI50: > 100 µM
  TGI: > 100 µM
MDA-MB-231 breast
  GI50: > 100 µM
  TGI: > 100 µM
MDA-MB-435 melanoma
  GI50: > 100 µM
  TGI: > 100 µM
MDA-MB-468 breast
  GI50: 55.5 µM
  TGI: > 100 µM
MOLT-4 leukemia
  GI50: 36.4 µM
  TGI: > 100 µM
NCI-H226 lung
  GI50: > 95.1 µM
  TGI: > 100 µM
NCI-H23 lung
  GI50: > 100 µM
  TGI: > 100 µM
NCI-H322M lung
  GI50: > 100 µM
  TGI: > 100 µM
NCI-H460 NSCLC
  GI50: > 100 µM
  TGI: > 100 µM
NCI-H522 lung
  GI50: > 100 µM
  TGI: > 100 µM
NCI/ADR-RES ovarian
  GI50: > 100 µM
  TGI: > 100 µM
OVCAR-3 ovarian
  GI50: > 100 µM
  TGI: > 100 µM
OVCAR-4 ovarian
  GI50: 90.4 µM
  TGI: > 100 µM
OVCAR-5 ovarian
  GI50: > 100 µM
  TGI: > 100 µM
OVCAR-8 ovarian
  GI50: > 100 µM
  TGI: > 100 µM
PC-3 prostate
  GI50: > 100 µM
  TGI: > 100 µM
RPMI-8226 leukemia
  GI50: 69.1 µM
  TGI: > 100 µM
RXF 393 renal
  GI50: > 62.4 µM
  TGI: > 100 µM
SF-268 CNS
  GI50: > 100 µM
  TGI: > 100 µM
SF-295 CNS
  GI50: > 100 µM
  TGI: > 100 µM
SF-539 CNS
  GI50: > 100 µM
  TGI: > 100 µM
SK-MEL-28 melanoma
  GI50: > 100 µM
  TGI: > 100 µM
SK-MEL-5 melanoma
  GI50: > 100 µM
  TGI: > 100 µM
SK-OV-3 ovarian
  GI50: > 100 µM
  TGI: > 100 µM
SN12C renal
  GI50: > 100 µM
  TGI: > 100 µM
SNB-19 CNS
  GI50: > 100 µM
  TGI: > 100 µM
SNB-75 CNS
  GI50: > 100 µM
  TGI: > 100 µM
SR leukemia
  GI50: 29 µM
  TGI: 100 µM
SW-620 colon
  GI50: > 100 µM
  TGI: > 100 µM
T-47D breast
  GI50: > 72.4 µM
  TGI: > 100 µM
TK-10 renal
  GI50: > 100 µM
  TGI: > 100 µM
U251 glioblastoma
  GI50: > 100 µM
  TGI: > 100 µM
UACC-257 melanoma
  GI50: > 100 µM
  TGI: > 100 µM
UACC-62 melanoma
  GI50: > 100 µM
  TGI: > 100 µM
UO-31 renal
  GI50: > 100 µM
  TGI: > 100 µM
